In PubChem BioAssay AID328 (DTP/NCI, 2004):
“And” between values parts separate entries of the source, which are not always exact repeats. Identical values can stand only once. Toxic doses and inconclusive results are not listed.

Test system: BDF1 mice, P388 leukemia ip, median survival T/C
Assay: NCI In Vivo Anticancer Drug Screen. Data for tumor model P388 Leukemia (intraperitoneal) in B6D2F1 (BDF1) mice
Conditions: endpoint: median survival time, higher = longer survival
Outline: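 Each value expresses how treatment altered survival: treated-mouse outcome over vehicle-mouse outcome, both groups bearing the transplanted tumour.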

[1] = dose: 12.5 mg/kg/injection, schedule: Q01DX009 (ip), vehicle: saline
[2] = dose: 25.0 mg/kg/injection, schedule: Q01DX009 (ip), vehicle: saline
[3] = dose: 50.0 mg/kg/injection, schedule: Q01DX009 (ip), vehicle: saline
[4] = dose: 50.0 mg/kg/injection, schedule: Q01DX009 (ip), vehicle: saline with Tween-80
[5] = dose: 100.0 mg/kg/injection, schedule: Q01DX009 (ip), vehicle: saline with Tween-80
[6] = dose: 100.0 mg/kg/injection, schedule: Q04DX003 (ip), vehicle: saline with Tween-80
[7] = dose: 200.0 mg/kg/injection, schedule: Q01DX009 (ip), vehicle: saline with Tween-80
[8] = dose: 200.0 mg/kg/injection, schedule: Q04DX003 (ip), vehicle: saline with Tween-80
[9] = dose: 100.0 mg/kg/injection, schedule: Q01DX009 (ip), vehicle: saline

CN1C(=O)Cc2[nH]ccc2C1=O
T/C (dose: 3.13 mg/kg/injection, schedule: Q04DX003 (ip), vehicle: saline with Tween-80): 106 % of control | T/C (dose: 6.25 mg/kg/injection, schedule: Q04DX003 (ip), vehicle: saline with Tween-80): 109 % of control | T/C (dose: 12.5 mg/kg/injection, schedule: Q04DX003 (ip), vehicle: saline with Tween-80): 119 % of control and 120 % of control | T/C (dose: 25.0 mg/kg/injection, schedule: Q04DX003 (ip), vehicle: saline with Tween-80): 118 % of control

Cc1nc(Cl)c2cnccn12
T/C [1]: 100 % of control | T/C [2]: 95 % of control | T/C [3]: 86 % of control

OC12CCC[N+]1(Cc1ccccc1)CCC2 (stereo not given)
T/C (dose: 25.0 mg/kg/injection, schedule: Q01DX010 (ip), vehicle: carboxymethylcellulose (CMC)): 90 % of control

CC(=O)Nc1ccc2c(c1)OCO2
T/C [4]: 104 % of control | T/C [5]: 104 % of control | T/C [6]: 95 % of control | T/C [7]: 90 % of control | T/C [8]: 113 % of control

O=C1CN(N2C(=O)CSC2C23CC4CC(CC(C4)C2)C3)C(=O)CN1c1ccccc1 (stereo not given)
T/C [4]: 92 % of control | T/C [5]: 92 % of control

Nc1nc(N)c2cc(CNc3ccc(C(=O)NC(C(=O)O)C(=O)O)cc3)ccc2n1
T/C (dose: 0.15 mg/kg/injection, schedule: Q01DX009 (ip), vehicle: saline): 163 % of control

O=C(c1ccccc1)N1CC=Cc2ccccc21
T/C [4]: 105 % of control | T/C [5]: 100 % of control | T/C [7]: 105 % of control

COC(=O)C(CSCSCc1ccccc1)NC(=O)C(CSCc1ccccc1)NC(=O)CCNC(=O)OCc1ccccc1 (stereo not given)
T/C (dose: 1.56 mg/kg/injection, schedule: Q04DX003 (ip), vehicle: Klucel (hydroxypropylcellulose) (HPC)): 101 % of control | T/C (dose: 3.13 mg/kg/injection, schedule: Q04DX003 (ip), vehicle: Klucel (hydroxypropylcellulose) (HPC)): 120 % of control | T/C (dose: 12.5 mg/kg/injection, schedule: Q04DX003 (ip), vehicle: Klucel (hydroxypropylcellulose) (HPC)): 101 % of control | T/C (dose: 25.0 mg/kg/injection, schedule: Q04DX003 (ip), vehicle: Klucel (hydroxypropylcellulose) (HPC)): 111 % of control

CC(=O)N1c2cc3ccccc3cc2N(C(C)=O)c2cc3ccccc3cc21
T/C [5]: 102 % of control | T/C [7]: 97 % of control | T/C (dose: 400.0 mg/kg/injection, schedule: Q01DX009 (ip), vehicle: saline with Tween-80): 117 % of control

Cn1cncc1CC(Cl)CO (stereo not given)
T/C [2]: 100 % of control | T/C [3]: 99 % of control | T/C [9]: 103 % of control

CCN(CC)c1nc(NC2CCCCC2)c2nc(N(CC)CC)nc(NC3CCCCC3)c2n1
T/C (dose: 3.13 mg/kg/injection, schedule: Q01DX009 (ip), vehicle: Klucel (hydroxypropylcellulose) (HPC)): 101 % of control | T/C (dose: 6.25 mg/kg/injection, schedule: Q01DX009 (ip), vehicle: Klucel (hydroxypropylcellulose) (HPC)): 110 % of control | T/C (dose: 12.5 mg/kg/injection, schedule: Q01DX009 (ip), vehicle: Klucel (hydroxypropylcellulose) (HPC)): 99 % of control | T/C (dose: 25.0 mg/kg/injection, schedule: Q01DX009 (ip), vehicle: Klucel (hydroxypropylcellulose) (HPC)): 101 % of control

CCOC(=O)C1CCCN1C(=O)c1c2nc3c(C(=O)N4CCCC4C(=O)OCC)ccc(C)c3oc-2c(C)c(=O)c1N (stereo not given)
T/C (dose: 100.0 mg/kg/injection, schedule: Q04DX002 (ip), vehicle: saline with Tween-80): 90 % of control | T/C (dose: 200.0 mg/kg/injection, schedule: Q04DX002 (ip), vehicle: saline with Tween-80): 101 % of control | T/C (dose: 400.0 mg/kg/injection, schedule: Q04DX002 (ip), vehicle: saline with Tween-80): 90 % of control

C=C(NC(=O)C(=C)NC(=O)c1csc(C2=NC3c4csc(n4)C4NC(=O)c5csc(n5)C(C(C)(O)C(C)O)NC(=O)C5CSC(=N5)/C(=C/C)NC(=O)C(C(C)O)NC(=O)c5csc(n5)C3(CC2)NC(=O)C(C)NC(=O)C(=C)NC(=O)C(C)NC(=O)C(C(C)CC)NC2C=Cc3c(C(C)O)cc(nc3C2O)C(=O)OC4C)n1)C(N)=O (stereo not given)
T/C (dose: 18.75 mg/kg/injection, schedule: Q01DX009 (ip), vehicle: Klucel (hydroxypropylcellulose) (HPC)): 112 % of control | T/C (dose: 37.5 mg/kg/injection, schedule: Q01DX009 (ip), vehicle: Klucel (hydroxypropylcellulose) (HPC)): 114 % of control | T/C (dose: 50.0 mg/kg/injection, schedule: Q01DX009 (ip), vehicle: Klucel (hydroxypropylcellulose) (HPC)): 158 % of control | T/C (dose: 75.0 mg/kg/injection, schedule: Q01DX009 (ip), vehicle: Klucel (hydroxypropylcellulose) (HPC)): 114 % of control | T/C (dose: 100.0 mg/kg/injection, schedule: Q01DX009 (ip), vehicle: Klucel (hydroxypropylcellulose) (HPC)): 155 % of control and 163 % of control | T/C (dose: 200.0 mg/kg/injection, schedule: Q01DX009 (ip), vehicle: Klucel (hydroxypropylcellulose) (HPC)): 156 % of control and 165 % of control and 182 % of control | T/C (dose: 300.0 mg/kg/injection, schedule: Q01DX009 (ip), vehicle: Klucel (hydroxypropylcellulose) (HPC)): 114 % of control

CC(CC(=O)c1ccccc1)=Nc1ccccc1.CC(CC(=O)c1ccccc1)=Nc1ccccc1.[Cu]
T/C (dose: 100.0 mg/kg/injection, schedule: Q01DX001 (ip), vehicle: saline sonified): 100 % of control | T/C (dose: 200.0 mg/kg/injection, schedule: Q01DX001 (ip), vehicle: saline sonified): 100 % of control | T/C (dose: 400.0 mg/kg/injection, schedule: Q01DX001 (ip), vehicle: saline sonified): 90 % of control

c1ccc2c(c1)Cc1c(NC3=NCCO3)cccc1-2
T/C (dose: 50.0 mg/kg/injection, schedule: Q04DX003 (ip), vehicle: saline with Tween-80): 95 % of control | T/C [6]: 95 % of control | T/C [8]: 108 % of control | T/C (dose: 400.0 mg/kg/injection, schedule: Q04DX003 (ip), vehicle: saline with Tween-80): 100 % of control

C=C(C)C(=O)NCC(=O)NC(Cc1ccccc1)C(=O)Oc1ccc([N+](=O)[O-])cc1 (stereo not given)
T/C (dose: 25.0 mg/kg/injection, schedule: Q01DX009 (ip), vehicle: saline with Tween-80): 97 % of control | T/C [4]: 101 % of control | T/C [5]: 99 % of control

CC1C[N+](C)(C)NC1=O (stereo not given)
T/C (dose: 50.0 mg/kg/injection, schedule: Q01DX001 (ip), vehicle: saline): 100 % of control | T/C (dose: 200.0 mg/kg/injection, schedule: Q01DX001 (ip), vehicle: saline): 100 % of control

N#CC(/C=C/c1ccccc1)Nc1ccccc1C(N)=O (stereo not given)
T/C (dose: 25.0 mg/kg/injection, schedule: Q01DX001 (ip), vehicle: saline with Tween-80): 109 % of control | T/C (dose: 50.0 mg/kg/injection, schedule: Q01DX001 (ip), vehicle: saline with Tween-80): 104 % of control | T/C (dose: 100.0 mg/kg/injection, schedule: Q01DX001 (ip), vehicle: saline with Tween-80): 100 % of control

O=P1(NCCCl)OCCCN1CCCl (stereo not given)
T/C (dose: 0.8 mg/kg/injection, schedule: Q01DX010 (ip), vehicle: saline): 105 % of control | T/C (dose: 1.5 mg/kg/injection, schedule: Q01DX010 (ip), vehicle: saline): 100 % of control | T/C (dose: 3.0 mg/kg/injection, schedule: Q01DX010 (ip), vehicle: saline): 110 % of control | T/C (dose: 3.12 mg/kg/injection, schedule: Q01DX009 (ip), vehicle: saline): 99 % of control | T/C (dose: 6.0 mg/kg/injection, schedule: Q01DX010 (ip), vehicle: saline): 110 % of control | T/C (dose: 6.25 mg/kg/injection, schedule: Q01DX009 (ip), vehicle: saline): 107 % of control and 115 % of control | T/C [1]: 173 % of control | T/C (dose: 12.5 mg/kg/injection, schedule: Q01DX010 (ip), vehicle: saline): 177 % of control | T/C [2]: 166 % of control and 196 % of control | T/C (dose: 25.0 mg/kg/injection, schedule: Q01DX009 (ip), vehicle: water): 156 % of control | T/C (dose: 25.0 mg/kg/injection, schedule: Q01DX010 (ip), vehicle: saline): 216 % of control | T/C [3]: 121 % of control | T/C (dose: 50.0 mg/kg/injection, schedule: Q01DX009 (ip), vehicle: water): 241 % of control | T/C (dose: 50.0 mg/kg/injection, schedule: Q01DX010 (ip), vehicle: saline): 200 % of control | T/C [9]: 105 % of control | T/C (dose: 100.0 mg/kg/injection, schedule: Q01DX010 (ip), vehicle: saline): 300 % of control | T/C (dose: 200.0 mg/kg/injection, schedule: Q01DX009 (ip), vehicle: saline): 87 % of control | T/C (dose: 200.0 mg/kg/injection, schedule: Q01DX009 (ip), vehicle: water): 98 % of control | T/C (dose: 200.0 mg/kg/injection, schedule: Q01DX010 (ip), vehicle: saline): 105 % of control

CC(=O)NNC(=O)c1ccncc1
T/C (dose: 100.0 mg/kg/injection, schedule: Q04DX003 (ip), vehicle: saline): 100 % of control | T/C (dose: 200.0 mg/kg/injection, schedule: Q04DX003 (ip), vehicle: saline): 118 % of control | T/C (dose: 400.0 mg/kg/injection, schedule: Q04DX003 (ip), vehicle: saline): 100 % of control
